Assay results from US8236510B2, “Protein showing enhanced expression in cancer cells” (Agensys, Inc., priority 1999, dated 2012).
Where two headings read alike, the source gives them in different places.

Experiments:
[1] = tested on: cAMP accumulation in PC3-101P3A11 cells; experiment: cAMP accumulation in PC3 and PC3-101P3A11 cells (enzyme immunoassay); assay type: cell-based, human
Method: Olfactory receptors are known to regulate biological responses by activating adenylate cyclase. In order to confirm that 101P3A11 functions as a GPCR and mediates the activation of adenylate cyclase, cAMP accumulation in PC3 and PC3-101P3A11 cells were compared (FIG. 32). Control PC3 and PC3-101P3A11 cells were grown in a low concentration of fetal bovine serum (FBS) for 14 hrs in the presence or absence of pertussis toxin (PTX). The cells were stimulated with 0.1% or 10% FBS, washed in PBS and lysed using a lysis buffer provided by Amersham Pharmacia. Intracellular concentration of cAMP was measured using a commercially available enzyme immunoassay (EIA) according to the manufacturer's recommendations (Amersham Pharmacia). Each assay was performed in duplicate. Calculations of cAMP concentrations were based on OD450 of the standard curve. Expression of 101P3A11 induced a four-fold increase in cAMP accumulation in the absence of stimulation. Treatment with 10% FBS further enhanced cAMP accumulation in PC3-101P3A11 cells to nearly seven-fold over control PC3-neo cells. 101P3A11 mediated cAMP accumulation was inhibited by PTX.
In order to confirm that anti-101P3A11 pAb has a detectable effect on cAMP accumulation, PC3 and PC3-101P3A11 cells were grown in 0.1% FBS and treated with anti-101P3A11 pAb. Cells were analyzed for cAMP content as described in FIG. 32. […]

3T3-101P3A11 tumors = experiment: Subcutaneous growth of 3T3-101P3A11 tumors in SCID mice; assay type: in vivo
Method: (2) Regulated expression under control of an inducible vector system, such as ecdysone, tet, etc., can be used provided such promoters are compatible with the host cell systems. […] FIG. 21 compares subcutaneous growth of control 3T3-neo and 3T3-101P3A11 cells. One million cells stably expressing neo or 101P3A11 were injected subcutaneously in SCID mice along with matrigel. Tumor volume was evaluated by caliper measurements. […] Additionally, SCID mice were implanted with the same 3T3-101P3A11 cells orthotopically in the prostate to determine if 101P3A11 has an effect on local growth in the prostate or on the ability of the cells to metastasize, specifically to lungs or lymph nodes. […] In an analogous manner, cells can be implanted orthotopically in the bladder, colon or kidney. (Saffran, D., et al., PNAS 10:1073-1078; Fu, X., et al., Int. J. Cancer, 1991, 49: p. 938-939; Chang, S., et al., Anticancer Res., 1997, 17: p. 3239-3242; Peralta, E. A., et al., J. Urol., 1999, 162: p. 1806-1811). The tumor enhancing effect of 101P3A11 was also observed when 101P3A11 is expressed in prostate cancer cells such as PC3 and introduced into the prostate of SCID mice (Figure M11). A 2.5 fold increase in tumor weight is observed in tumors expressing 101P3A11 relative to control cells.
Furthermore, these assays is useful to confirm the anti-101P3A11 inhibitory effects of candidate therapeutic compositions, such as for example, 101P3A11 antibodies or intrabodies, and 101P3A11 antisense molecules or ribozymes, or 101P3A11 directed small molecules. In FIG. 22, we depict the effect of a small molecule, pertussis toxin (PTX) on tumor formation by 3T3-101P3A11 cells. In this experiment, SCID mice were injected with 3T3-101P3A11 alone or in conjunction with PTX. Each mouse was given 5 doses of PTX at 3-4 days interval. Tumor volume was evaluated by caliper measurements. […] Similarly, treatment with the G-protein inhibitor suramin inhibits the growth of 3T3-101P3A11 tumors (Figure M13).

## pertussis toxin [PTX]
[1]
  inhibition of 101P3A11 mediated cAMP accumulation: partially inhibited
[1]; listed as pertussis toxin
  inhibition of 101P3A11 mediated cAMP accumulation: inhibited
3T3-101P3A11 tumors; 5 doses at 3-4 days interval, tumor volume by caliper
  inhibition of tumor growth: inhibits tumor growth in a dose dependent manner
3T3-101P3A11 tumors; 5 doses at 3-4 days interval, tumor volume by caliper, listed as Pertussis toxin
  inhibition of tumor growth: inhibit
3T3-101P3A11 tumors; 5 time per week, after 25 days
  inhibition of tumor growth: 70%
